“And” between values parts separate entries of the source, which are not always exact repeats. Identical values can stand only once. “Also recorded” adds a separate entry of the source. Like-named read-outs stand apart in the source and are kept apart here.
Legend:
Format in all cases: biochemical
[1] = target: T1, amylin (Homo sapiens, UniProt P10997); test: Amylin aggregation, qualitative electron microscopy; settings: amylin 50 μM, 4.1 μM N744, 24 hour period
T1 construct: purchased Bachem
T1 sequence (P10997 34-70 limits assumed): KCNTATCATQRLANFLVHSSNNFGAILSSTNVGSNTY
Procedure: Amylin Aggregation. Aggregation was initiated by diluting the peptide in 10 mM Tris-HCl, pH 7.3 to a final concentration of 50 μM (Goldsbury et al., J. Struct. Biol. 130: 352-362 (2000)) in the presence or absence of 4.1 μM N744. Aliquots were removed after 0, 1, 3, 5, 7, and 24 hours and prepared for EM as described above.
The activity of N744 on another amyloid-forming protein, amylin (Goldsbury et al., J. Struct. Biol. 130: 352-362 (2000)), was also examined.

[2] = target: T2, htau40 filaments (Homo sapiens, UniProt P10636); test: Tau disaggregation: preformed htau40 filaments, quantitative electron microscopy
T2 construct: polyhistidine; made in house
T2 sequence (P10636 1-441 isoform P10636-8): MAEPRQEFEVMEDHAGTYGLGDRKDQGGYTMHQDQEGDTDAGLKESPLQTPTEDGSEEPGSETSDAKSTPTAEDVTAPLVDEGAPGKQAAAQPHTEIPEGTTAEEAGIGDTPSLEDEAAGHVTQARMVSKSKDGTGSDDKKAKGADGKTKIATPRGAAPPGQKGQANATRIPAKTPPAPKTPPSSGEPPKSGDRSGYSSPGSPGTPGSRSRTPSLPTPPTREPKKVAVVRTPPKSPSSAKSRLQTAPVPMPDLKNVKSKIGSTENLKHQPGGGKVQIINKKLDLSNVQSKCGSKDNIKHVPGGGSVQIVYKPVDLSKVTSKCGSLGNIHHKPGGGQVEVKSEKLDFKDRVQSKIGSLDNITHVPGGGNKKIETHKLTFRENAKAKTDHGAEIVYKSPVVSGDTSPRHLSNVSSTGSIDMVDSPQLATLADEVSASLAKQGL
Procedure: Tau Disaggregation. Solutions of purified htau40 (4 μM) were polymerized under standard conditions as described above for 3.5 hours, then divided into two separate tubes. One tube received N744 at a final concentration of 4.7 μM, whereas the second tube received DMSO vehicle alone. Aliquots were removed from each sample after 0, 1, 3, 5, 9, 12, and 19 hours incubation and subjected to the electron microscopy assay described below. Control (no N744) reactions were normalized for DMSO vehicle, which was kept below 5.7% (v/v) in all reactions.
(§1) Transmission Electron Microscopy. Aliquots (50 μl) of aggregation and disaggregation reactions were removed, fixed with glutaraldehyde (2%), and adsorbed (1 minute) onto 300 mesh formvar/carbon-coated copper grids (Electron Microscopy Sciences; Ft. Washington, Pa.). The resultant grids were washed with water, stained (1 minute) with 2% uranyl acetate (Electron Microscopy Sciences), washed again with water, blotted dry, and viewed in a Phillips CM 12 microscope operated at 65 kV. Three to five random images from each experimental condition were captured on film at 22,000× magnification, digitized, calibrated, and imported into Optimas 6.5.1 for quantitation of filament length and number as described previously (King et al., J. Neurochem 74: 1749-1757 (2000). An individual filament is defined as any object greater than 50 nm in its long axis. Filaments were counted manually. Filament counts are reported as an average±standard deviation for both total filament length and total filament number. Length distributions were quantified in 25 nm (assembly) or 50 nm (disassembly) wide bins.
N744 Promotes tau Filament Disaggregation. […] To test this hypothesis, htau40 (4 μM) was polymerized with arachidonic acid (75 μM) over a 3.5 hour period after which time equal aliquots were treated with N744 (4.7 μM) or DMSO vehicle alone and filament numbers and lengths were measured over a 19 hour “chase” by electron microscopy. In the absence of N744, total htau40 filament length decreased 23±4% over this time period (FIG. 4). Because sample dilution was only 6% in the experimental paradigm, it appeared that DMSO alone destabilized tau filaments at these concentrations. In contrast, addition of N744 (4.7 μM) led to a more rapid decrease in total filament length so that 87±13% of total filament length was lost over the 19 hour time course. The initial rate of filament loss was well modeled as a first order decay (r^2=0.981; k=0.12±0.01 h^−1) under these conditions (FIG. 4).

[3] = target: T3, Aβ1-40 (Homo sapiens, UniProt P05067); test: Aβ1-40 aggregation, turbidity at 400 nm; settings: Aβ1-40 20 μM, 4.1 μM N744, 5 hours
T3 construct: Human Aβ1-40 (Bachem; Philadelphia, Pa.); purchased Bachem
T3 sequence (P05067 672-711 limits assumed): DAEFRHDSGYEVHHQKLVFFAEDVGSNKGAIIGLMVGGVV
Procedure: Aβ1-40 Aggregation. Aggregation was initiated by diluting the Aβ stock solution to 20 μM final concentration in aggregation buffer (150 mM NaCl, 10 mM 2-[N-morpholino]ethanesulfonic acid, pH 6.2; final volume 300 μl). Turbidity resulting from Aβ aggregation in the presence (4.1 μM final concentration) and absence of […] was monitored as a function of time in a Beckman DU640B spectrophotometer at 400 nm versus a DMSO vehicle blank (Snyder et al., Biophys 67: 1216-1228 (1994); Evans et al., Proc. Natl. Acad. Sci U.S.A. 92: 763-767 (1995)). Cuvettes were vortexed before each reading. […] Selectivity of tau Fibrillization Antagonism. […] To determine whether amyloid binding was accompanied by fibrillization inhibitory activity, the ability of […] to inhibit Aβ1-40 assembly was examined. In the absence of ligand, Aβ1-40 (20 μM) polymerized spontaneously after a lag of about 80 minutes.

[4] = target: T4, htau40 (Homo sapiens, UniProt P10636); test: Tau aggregation: arachidonic acid-induced htau40 fibrillization, quantitative transmission electron microscopy; set-up: IC50 for inhibition of tau fibrillization relative to molar concentration of arachidonic acid: unit not given here; settings: for filament length distribution versus DMSO vehicle control: 3 hours at 37° C.; for IC50: N744 0.12-4.1 μM
T4 construct: polyhistidine; made in house
T4 sequence (P10636 1-441 isoform P10636-8): as the sequence (P10636 1-441 isoform P10636-8) above
Procedure: Tau Aggregation. Purified recombinant htau40 was polymerized as described previously (King et al., Biochemistry 38: 14851-14859 (1999); Wilson et al., Am. J. Pathol 150: 2181-2195 (1997); King et al., J. Neurochem 74: 1749-1757 (2000)). Under standard conditions, 4 μM (final concentration) htau40 was incubated with arachidonic acid in Assembly Buffer (10 mM 4-[2-hydroxyethyl]-1-piperazineethanesulfonic acid, 100 mM NaCl, and 5 mM DTT) at either room temperature or at 37° C. Fibrillization was induced by the addition of arachidonic acid (75-100 μM) and continued for 3 to 6 hours until analyzed by electron microscopy as described below. When present, N744 final concentration varied between 0.12 and 4.1 μM in aggregation assays. (N744 final concentration of up to 4.7 μM was used in disaggregation assays (see below)). Control reactions were normalized for DMSO vehicle, which was limited to no more than 5% (v/v) in all reactions.
as §1

[5] = htau40 4 μM, arachidonic acid 75 μM, 3.5 hours at 37° C.

For `CCC(/C=C1\Sc2ccc(OC)cc2N1CCO)=C\c1sc2ccc(OC)cc2[n+]1CCO` [N744, 3-(2-hydroxyethyl)-2-[2-[[3-(2-hydroxyethyl)-5-methoxy-2-benzothiazolylidene]methyl]-1-butenyl]-5-methoxybenzothiazolium], the “effect on amylin fibrillization” value [1] was “did not interfere; also recorded: did not modulate”, the “net first order rate of filament loss, corrected for dilution and DMSO vehicle” value ([2]; 4.7 μM N744, htau40 4 μM) was 0.10 ± 0.02 h⁻¹ and the “initial first order rate of decrease of total filament length” value ([2]; 4.7 μM N744 added to filaments from htau40 4 μM, 19 hour chase) was 0.12 ± 0.01 h⁻¹. The “filament number per length bin relative to DMSO only control” value ([2]; 19 hours, 4.7 μM N744, 50 nm bins) was “significantly fewer filaments in every bin”, the “total filament length as % of vehicle only control” value ([2]; after 19 hours incubation with 4.7 μM N744) was 13±2% and the “total filament length lost” value ([2]; over 19 hour time course, 4.7 μM N744) was 87±13%. For the same compound, the “effect on Aβ1-40 fibrillization” value [3] was “did not appreciably modulate the extent or half-life; also recorded: little effect”, the “IC50 for inhibition of tau fibrillization relative to molar concentration of arachidonic acid” value [4] was under 0.01 and the “tau fibrillization (total number or total length of filaments)” value ([4]; 4.1 μM N744, about 1:1 with htau40 4 μM, arachidonic acid 75 μM) was “greatly inhibited”. The “filament length distribution versus DMSO vehicle control” value ([4]; N744 ≧1.2 μM, htau40 4 μM) was “significant shortening”, the “Hill slope, total filament length” value [4, 5] was 1.84±0.14 and the “Hill slope, total filament number” value [4, 5] was 1.61±0.10. The IC50 ([4]; htau40 4 μM, arachidonic acid 75 μM, 3.5 hours at 37° C., read-out: IC50, inhibition of total filament length) was 294 nM and < 300 nM and ~300 nM, the IC50 ([4]; htau40 4 μM, arachidonic acid 75 μM, 3.5 hours at 37° C., read-out: IC50, inhibition of total filament number) was 272 ± 17 nM and the “filament length distribution versus DMSO vehicle control” value ([4]; low N744 concentrations (≦410 nM), htau40 4 μM) was “did not differ significantly”.
